The source made the active and inactive calls. The calls are words filed in the database; no cut-off is given here.
What was measured:
[1] = Half life in Han Wistar rat at 1 mg/kg, iv by LC-MS/MS analysis; format: ADME, organism-based; conditions: in vivo
[2] = Volume of distribution at steady state in Han Wistar rat at 1 mg/kg, iv by LC-MS/MS analysis; format: ADME, organism-based; conditions: in vivo, read-out: Vdss
[3] = AUC (0 to t) in Beagle dog at 1 mg/kg, iv by LC-MS/MS analysis; format: ADME, organism-based, Canis lupus familiaris; conditions: in vivo
[4] = AUC (0 to t) in CD1 mouse at 1 mg/kg, iv by LC-MS/MS analysis; format: ADME, organism-based; conditions: in vivo
[5] = Volume of distribution at steady state in CD1 mouse at 1 mg/kg, iv by LC-MS/MS analysis; format: ADME, organism-based; conditions: in vivo, read-out: Vdss
[6] = Half life in Beagle dog at 1 mg/kg, po by LC-MS/MS analysis; format: ADME, organism-based, Canis lupus familiaris; conditions: in vivo
[7] = AUC (0 to t) in Han Wistar rat at 1 mg/kg, iv by LC-MS/MS analysis; format: ADME, organism-based; conditions: in vivo
[8] = Cmax in Han Wistar rat at 5 mg/kg, po by LC-MS/MS analysis; format: ADME, organism-based; design: dose 5 mg/kg, route oral; conditions: in vivo
[9] = Cmax in CD1 mouse at 5 mg/kg, po by LC-MS/MS analysis; format: ADME, organism-based; design: dose 5 mg/kg, route oral; conditions: in vivo
[10] = Tmax in Han Wistar rat at 5 mg/kg, po by LC-MS/MS analysis; format: ADME, organism-based; conditions: in vivo
[11] = AUC (0 to t) in Han Wistar rat at 5 mg/kg, po by LC-MS/MS analysis; format: ADME, organism-based; conditions: in vivo
[12] = AUC (0 to infinity) in Beagle dog at 1 mg/kg, iv by LC-MS/MS analysis; format: ADME, organism-based, Canis lupus familiaris; design: dose 1 mg/kg, route intravenous, time infinity; conditions: in vivo
[13] = Tmax in Beagle dog at 1 mg/kg, po by LC-MS/MS analysis; format: ADME, organism-based, Canis lupus familiaris; conditions: in vivo
[14] = AUC (0 to infinity) in CD1 mouse at 5 mg/kg, po by LC-MS/MS analysis; format: ADME, organism-based; design: dose 5 mg/kg, route oral, time infinity; conditions: in vivo
[15] = AUC (0 to infinity) in Han Wistar rat at 5 mg/kg, po by LC-MS/MS analysis; format: ADME, organism-based; design: dose 5 mg/kg, time infinity, route oral; conditions: in vivo
[16] = Half life in Beagle dog at 1 mg/kg, iv by LC-MS/MS analysis; format: ADME, organism-based, Canis lupus familiaris; conditions: in vivo
[17] = Clearance in Han Wistar rat at 1 mg/kg, iv by LC-MS/MS analysis; format: ADME, organism-based; conditions: in vivo
[18] = Half life in Han Wistar rat at 5 mg/kg, po by LC-MS/MS analysis; format: ADME, organism-based; conditions: in vivo
[19] = Volume of distribution at steady state in Beagle dog at 1 mg/kg, iv by LC-MS/MS analysis; format: ADME, organism-based, Canis lupus familiaris; conditions: in vivo, read-out: Vdss
[20] = Half life in CD1 mouse at 1 mg/kg, iv by LC-MS/MS analysis; format: ADME, organism-based; conditions: in vivo
[21] = Oral bioavailability in Beagle dog at 1 mg/kg by LC-MS/MS analysis; format: ADME, organism-based, Canis lupus familiaris; conditions: in vivo
[22] = Half life in CD1 mouse at 5 mg/kg, po by LC-MS/MS analysis; format: ADME, organism-based; conditions: in vivo
[23] = Clearance in CD1 mouse at 1 mg/kg, iv by LC-MS/MS analysis; format: ADME, organism-based; conditions: in vivo
[24] = AUC (0 to infinity) in Han Wistar rat at 1 mg/kg, iv by LC-MS/MS analysis; format: ADME, organism-based; design: dose 1 mg/kg, time infinity, route intravenous; conditions: in vivo
[25] = Oral availability in Han Wistar rat at 5 mg/kg by LC-MS/MS analysis; format: ADME, organism-based; conditions: in vivo
[26] = AUC (0 to t) in CD1 mouse at 5 mg/kg, po by LC-MS/MS analysis; format: ADME, organism-based; conditions: in vivo
[27] = Oral bioavailability in CD1 mouse at 5 mg/kg by LC-MS/MS analysis; format: ADME, organism-based; conditions: in vivo
[28] = AUC (0 to infinity) in CD1 mouse at 1 mg/kg, iv by LC-MS/MS analysis; format: ADME, organism-based; design: dose 1 mg/kg, time infinity, route intravenous; conditions: in vivo
[29] = AUC (0 to infinity) in Beagle dog at 1 mg/kg, po by LC-MS/MS analysis; format: ADME, organism-based, Canis lupus familiaris; design: dose 1 mg/kg, route oral, time infinity; conditions: in vivo
[30] = Tmax in CD1 mouse at 5 mg/kg, po by LC-MS/MS analysis; format: ADME, organism-based; conditions: in vivo
[31] = AUC (0 to t) in Beagle dog at 1 mg/kg, po by LC-MS/MS analysis; format: ADME, organism-based, Canis lupus familiaris; conditions: in vivo
[32] = Cmax in Beagle dog at 1 mg/kg, po by LC-MS/MS analysis; format: ADME, organism-based, Canis lupus familiaris; design: dose 1 mg/kg, route oral; conditions: in vivo
[33] = Clearance in Beagle dog at 1 mg/kg, iv by LC-MS/MS analysis; format: ADME, organism-based, Canis lupus familiaris; conditions: in vivo
[34] = target: T1, Nonstructural protein 5A (Hepatitis C virus) (UniProt Q5L478); assay: Potency index, ratio of EC50 of cpd1 to EC50 of compound for inhibition of HCV genotype 2a con NS5A infected in HuH-Lcu-Neo cells assessed as reduction in viral replication incubated for 48 hrs by luciferase reporter gene assay; format: cell-based; conditions: Hepatitis C virus subtype 2a
T1 sequence (whole entry): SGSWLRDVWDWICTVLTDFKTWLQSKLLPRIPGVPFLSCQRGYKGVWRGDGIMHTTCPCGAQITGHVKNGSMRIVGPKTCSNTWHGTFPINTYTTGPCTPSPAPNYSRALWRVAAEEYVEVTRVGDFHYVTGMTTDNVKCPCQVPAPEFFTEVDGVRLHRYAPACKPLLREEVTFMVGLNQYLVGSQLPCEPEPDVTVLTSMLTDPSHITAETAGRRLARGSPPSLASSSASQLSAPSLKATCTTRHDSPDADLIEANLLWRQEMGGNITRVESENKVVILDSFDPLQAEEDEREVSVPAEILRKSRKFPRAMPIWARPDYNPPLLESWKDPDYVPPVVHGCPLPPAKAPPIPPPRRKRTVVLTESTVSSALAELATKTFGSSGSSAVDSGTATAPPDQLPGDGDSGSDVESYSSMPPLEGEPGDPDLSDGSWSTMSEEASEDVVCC

[35] = target: T1, Nonstructural protein 5A (Hepatitis C virus); assay: Potency index, ratio of EC50 of DCV to EC50 of compound for inhibition of patient-derived HCV genotype 2a NS5A infected in HuH-Lcu-Neo cells assessed as reduction in viral replication incubated for 48 hrs by luciferase reporter gene assay; format: cell-based; conditions: Hepatitis C virus subtype 2a
[36] = target: T1, Nonstructural protein 5A (Hepatitis C virus); assay: Inhibition of HCV NS5A infected in HuH-Lcu-Neo cells assessed as reduction in viral replication in presence of BILN2061 incubated for 48 hrs by luciferase reporter gene assay; format: cell-based; conditions: Hepacivirus hominis
[37] = target: T1, Nonstructural protein 5A (Hepatitis C virus); assay: Inhibition of HCV NS5A infected in HuH-Lcu-Neo cells assessed as reduction in viral replication in presence of NNI incubated for 48 hrs by luciferase reporter gene assay; format: cell-based; conditions: Hepacivirus hominis
[38] = target: T1, Nonstructural protein 5A (Hepatitis C virus); assay: Inhibition of HCV genotype 3a con NS5A infected in HuH-Lcu-Neo cells assessed as fold reduction in virus RNA level at 10 times of EC90 incubated for 21 days by luciferase reporter gene assay; format: cell-based; conditions: Hepatitis C virus subtype 3a
[39] = target: T1, Nonstructural protein 5A (Hepatitis C virus); assay: Inhibition of HCV genotype 2a con NS5A infected in HuH-Lcu-Neo cells assessed as fold reduction in virus RNA level at 10 times of EC90 incubated for 21 days by luciferase reporter gene assay; format: cell-based; conditions: Hepatitis C virus subtype 2a
[40] = target: T1, Nonstructural protein 5A (Hepatitis C virus); assay: Inhibition of HCV NS5A infected in HuH-Lcu-Neo cells assessed as reduction in viral replication in presence of ribavirin incubated for 48 hrs by luciferase reporter gene assay; format: cell-based; conditions: Hepacivirus hominis
[41] = target: T1, Nonstructural protein 5A (Hepatitis C virus); assay: Inhibition of HCV genotype 1a NS5A infected in HuH-Lcu-Neo cells assessed as log reduction in virus RNA level at 10 times of EC90 incubated for 21 days by luciferase reporter gene assay; format: cell-based; conditions: Hepatitis C virus subtype 1a
[42] = target: T1, Nonstructural protein 5A (Hepatitis C virus); assay: Potency index, ratio of EC50 of DCV to EC50 of compound for inhibition of HCV genotype 3a con NS5A infected in HuH-Lcu-Neo cells assessed as reduction in viral replication incubated for 48 hrs by luciferase reporter gene assay; format: cell-based; conditions: Hepatitis C virus subtype 3a
[43] = target: T1, Nonstructural protein 5A (Hepatitis C virus); assay: Inhibition of HCV genotype 1b NS5A infected in HuH-Lcu-Neo cells assessed as log reduction in virus RNA level at 10 times of EC90 incubated for 21 days by luciferase reporter gene assay; format: cell-based; conditions: Hepatitis C virus subtype 1b
[44] = target: T1, Nonstructural protein 5A (Hepatitis C virus); assay: Inhibition of HCV NS5A infected in HuH-Lcu-Neo cells assessed as reduction in viral replication in presence of NM107 incubated for 48 hrs by luciferase reporter gene assay; format: cell-based; conditions: Hepacivirus hominis
[45] = target: T1, Nonstructural protein 5A (Hepatitis C virus); assay: Potency index, ratio of EC50 of DCV to EC50 of compound for inhibition of HCV genotype 2a con NS5A infected in HuH-Lcu-Neo cells assessed as reduction in viral replication incubated for 48 hrs by luciferase reporter gene assay; format: cell-based; conditions: Hepatitis C virus subtype 2a
[46] = target: T1, Nonstructural protein 5A (Hepatitis C virus); assay: Potency index, ratio of EC50 of DCV to EC50 of compound for inhibition of patient-derived HCV genotype 3a NS5A infected in HuH-Lcu-Neo cells assessed as reduction in viral replication incubated for 48 hrs by luciferase reporter gene assay; format: cell-based; conditions: Hepatitis C virus subtype 3a

## COC(=O)N[C@H](C(=O)N1[C@H](c2ncc(-c3ccc4c(c3)-c3ccc(-c5cnc([C@@H]6C[C@@H]7CCC[C@@H]7N6C(=O)[C@@H](NC(=O)OC)[C@@H](C)OC)[nH]5)cc3-4)[nH]2)C[C@@H]2CCC[C@@H]21)[C@@H](C)OC [listing 1 of 2 here]
[1]
  half-life: 1.5 h
[2]
  Vd: 1.3 L/kg
[3]
  AUC(0-t): 3140 ng·h/mL
[4]
  AUC(0-t): 1070 ng·h/mL
[5]
  Vd: 1.3 L/kg
[6]
  half-life: 6 h
[7]
  AUC(0-t): 498 ng·h/mL
[8]
  Cmax: 32 ng/mL
[9]
  Cmax: 506 ng/mL
[10]
  Tmax: 2 h
[11]
  AUC(0-t): 178 ng·h/mL
[12]
  AUC(0-inf): 3180 ng·h/mL
[13]
  Tmax: 4 h
[14]
  AUC(0-inf): 2550 ng·h/mL
[15]
  AUC(0-inf): 216 ng·h/mL
[16]
  half-life: 5.2 h
[17]
  clearance: 33.8 mL/min/kg
[18]
  half-life: 4.8 h
[19]
  Vd: 1 L/kg
[20]
  half-life: 1.7 h
[21]
  bioavailability: 20%
[22]
  half-life: 1.7 h
[23]
  clearance: 15.4 mL/min/kg
[24]
  AUC(0-inf): 501 ng·h/mL
[25]
  bioavailability: 9%
[26]
  AUC(0-t): 2490 ng·h/mL
[27]
  bioavailability: 46%
[28]
  AUC(0-inf): 1100 ng·h/mL
[29]
  AUC(0-inf): 633 ng·h/mL
[30]
  Tmax: 2 h
[31]
  AUC(0-t): 593 ng·h/mL
[32]
  Cmax: 99 ng/mL
[33]
  clearance: 5.3 mL/min/kg

## COC(=O)N[C@H](C(=O)N1[C@H](c2ncc(-c3ccc4c(c3)-c3ccc(-c5cnc([C@@H]6C[C@@H]7CCC[C@@H]7N6C(=O)[C@@H](NC(=O)OC)[C@@H](C)OC)[nH]5)cc3-4)[nH]2)C[C@@H]2CCC[C@@H]21)[C@@H](C)OC.Cl
[8]
  Cmax: 258 ng/mL
[10]
  Tmax: 1.5 h
[11]
  AUC(0-t): 1250 ng·h/mL
[15]
  AUC(0-inf): 1260 ng·h/mL
[18]
  half-life: 1.7 h
[25]
  bioavailability: 41%

## CN(C)[C@@H](C(=O)N1CCC[C@H]1c1ncc(-c2ccc3c(c2)-c2ccc(-c4cnc([C@@H]5CCCN5C(=O)[C@@H](c5ccccc5)N(C)C)[nH]4)cc2-3)[nH]1)c1ccccc1
[34]
  Ratio EC50: 98

## COC(=O)N[C@H](C(=O)N1[C@H](c2ncc(-c3ccc4c(c3)-c3ccc(-c5cnc([C@@H]6C[C@@H]7CCC[C@@H]7N6C(=O)[C@@H](NC(=O)OC)[C@@H](C)OC)[nH]5)cc3-4)[nH]2)C[C@@H]2CCC[C@@H]21)[C@@H](C)OC [listing 2 of 2 here]
[35]
  Ratio EC50: 74
[36]
  inhibition: inactive
[37]
  inhibition: inactive
[38]
  fold change (FC): 1.8 to 3.1
[39]
  fold change (FC): 1.8 to 3.1
[40]
  inhibition: inactive
[41]
  FC: 1.8 to 3.1
[42]
  Ratio EC50: 20
[43]
  FC: > 5
[44]
  inhibition: inactive
[45]
  Ratio EC50: 462
[46]
  Ratio EC50: 37

## COC(=O)N[C@H](C(=O)N1CCC[C@H]1c1ncc(-c2ccc3c(c2)-c2ccc(-c4cnc([C@@H]5CCCN5C(=O)[C@@H](c5ccccc5)N(C)C)[nH]4)cc2-3)[nH]1)C(C)C
[34]
  Ratio EC50: 22
